In patent publication US8034924B2, “Process for production of crystal of purine nucleoside compound” (Ajinomoto Co., Inc., priority 2007, dated 2011):

Test: Storage stability of crystals of 2′,3′-dideoxyinosine (increase of hypoxanthine after storage, HPLC)
Assay type: physicochemical
Conditions: crystals stored at 60° C., at RH75% for 7 days; Table 1
Description: In order to examine the storage stability, the obtained crystals were stored at 60° C., at RH75% for 7 days.
The concentration of the phosphate on the surface of the crystals and the amount of hypoxanthine were analyzed in the conditions shown in the following Table 2.

SMILES | Increase of hypoxanthine after storage (%/DDI)
OC[C@@H]1CC[C@H](n2cnc3c(O)ncnc32)O1 [Ex. 2, 2′,3′-dideoxyinosine] | 0.48
OC[C@@H]1CC[C@H](n2cnc3c(O)ncnc32)O1 [Ex. 1, 2′,3′-dideoxyinosine] | 0.45
OC[C@@H]1CC[C@H](n2cnc3c(O)ncnc32)O1 [Comp. Ex. 4, 2′,3′-dideoxyinosine, reference compound] | 2.20
OC[C@@H]1CC[C@H](n2cnc3c(O)ncnc32)O1 [Comp. Ex. 2, 2′,3′-dideoxyinosine, reference compound] | 1.91
OC[C@@H]1CC[C@H](n2cnc3c(O)ncnc32)O1 [Comp. Ex. 1, 2′,3′-dideoxyinosine, reference compound] | 2.24
OC[C@@H]1CC[C@H](n2cnc3c(O)ncnc32)O1 [Ex. 4, 2′,3′-dideoxyinosine] | 0.54
OC[C@@H]1CC[C@H](n2cnc3c(O)ncnc32)O1 [Ex. 3, 2′,3′-dideoxyinosine] | 0.20
OC[C@@H]1CC[C@H](n2cnc3c(O)ncnc32)O1 [Comp. Ex. 3, 2′,3′-dideoxyinosine, reference compound] | 2.21

Same assay, conditions: crystals stored at 60° C., at RH75% for 7 days; Table 3, phosphate removed by suspending in water vs Example 3

SMILES | Increase of hypoxanthine after storage (%/DDI)
OC[C@@H]1CC[C@H](n2cnc3c(O)ncnc32)O1 [Comp. Ex. 5, 2′,3′-dideoxyinosine, reference compound] | 4.32
OC[C@@H]1CC[C@H](n2cnc3c(O)ncnc32)O1 [Ex. 3, 2′,3′-dideoxyinosine] | 0.20

Same assay, conditions: crystals stored at 60° C., at RH75% for 7 days; Table 4, degree of washing changed per sample

SMILES | Increase of hypoxanthine after storage (%/DDI)
OC[C@@H]1CC[C@H](n2cnc3c(O)ncnc32)O1 [Ex. 9, 2′,3′-dideoxyinosine] | 0.70
OC[C@@H]1CC[C@H](n2cnc3c(O)ncnc32)O1 [Ex. 11, 2′,3′-dideoxyinosine] | 0.90
OC[C@@H]1CC[C@H](n2cnc3c(O)ncnc32)O1 [Ex. 12, 2′,3′-dideoxyinosine] | 1.26
OC[C@@H]1CC[C@H](n2cnc3c(O)ncnc32)O1 [Ex. 8, 2′,3′-dideoxyinosine] | 0.90
OC[C@@H]1CC[C@H](n2cnc3c(O)ncnc32)O1 [Ex. 10, 2′,3′-dideoxyinosine] | 0.97
OC[C@@H]1CC[C@H](n2cnc3c(O)ncnc32)O1 [Ex. 5, 2′,3′-dideoxyinosine] | 1.38
OC[C@@H]1CC[C@H](n2cnc3c(O)ncnc32)O1 [Comp. Ex. 8, 2′,3′-dideoxyinosine, reference compound] | 2.20
OC[C@@H]1CC[C@H](n2cnc3c(O)ncnc32)O1 [Comp. Ex. 10, 2′,3′-dideoxyinosine, reference compound] | 1.91
OC[C@@H]1CC[C@H](n2cnc3c(O)ncnc32)O1 [Ex. 7, 2′,3′-dideoxyinosine] | 1.19
OC[C@@H]1CC[C@H](n2cnc3c(O)ncnc32)O1 [Comp. Ex. 6, 2′,3′-dideoxyinosine, reference compound] | 2.47
OC[C@@H]1CC[C@H](n2cnc3c(O)ncnc32)O1 [Comp. Ex. 7, 2′,3′-dideoxyinosine, reference compound] | 2.24
OC[C@@H]1CC[C@H](n2cnc3c(O)ncnc32)O1 [Comp. Ex. 9, 2′,3′-dideoxyinosine, reference compound] | 2.21
OC[C@@H]1CC[C@H](n2cnc3c(O)ncnc32)O1 [Ex. 13, 2′,3′-dideoxyinosine] | 1.04
OC[C@@H]1CC[C@H](n2cnc3c(O)ncnc32)O1 [Ex. 6, 2′,3′-dideoxyinosine] | 1.03
